Data: US20110052562A1, “BENZIMIDAZOLES AND ANALOGS AS RHO KINASE INHIBITORS” (The Scripps Research Institute, priority 2007, published 2011)

Tests used:
N2a cells = assay: Neurite Length Assay (N2a, cell assay); assay type: cell-based; settings: Mus musculus, neurite retraction induced by 5 uM LPA
Experimental: Neurite Length Assay (N2a, Cell Assay).
N2a cells are maintained in DMEM/FBS at 37 C and 5% CO2. For the experiment the cells were plated on a poly-D-lysine coated 96-well tissue culture plate. After attachment, cell differentiation was induced for 2 days by addition of 10 uM retinoic acid. Cells were treated for 1 h with a dilution of compounds in 0.3% DMSO final concentration before neurite retraction was induced by 5 uM LPA. Cells were stained for tubulin and nuclei and images were acquired on a INCell 1000 workstation. Images were analyzed using the developer toolbox and neurite length was quantitated. […] For example, the IC50 of Example 169 is 4 nM.

smooth muscle cells = assay: Myosin Light Chain Double Phosphorylation Assay (ppMLC, cell assay); assay type: cell-based; settings: serum starved smooth muscle cells, compound 1 h, LPA 30 min
Experimental: Myosin Light Chain Double Phosphorylation Assays (ppMLC, cell assay).
Serum starved smooth muscle cells were incubated with compound for 1 h before induction of myosin light chain phosphorylation by LPA for 30 min. Cells were washed and fixed before staining for phosphorylated myosin light chain and DNA. Phosphorylation status was quantitated with the LI-COR Odyssey Imager. […] For example, the IC50 of Example 169 is 6 nM.

Rhok2 = Rhok2 (Homo sapiens, UniProt O75116); assay: Enzymatic Rho kinase assay (Kinase-Glo luminescence, S6 peptide substrate); assay type: biochemical; settings: Rhok2 enzyme, 2 hours at 25 degrees Celsius
Experimental: Enzymatic Rho kinase (ROCK I and ROCK II) Assays.
The assay is based on ability of Rhok2 to phosphorylate a specific peptide sequence derived from its substrate—ribosomal protein S6 (amino acid residues 229-239, (LCB-[…]-NH2)). Rhok2 uses ATP as a donor of phosphate for the phosphorylation of the substrate, which leads to the depletion of ATP in the reaction mix. An assay kit (“Kinase-Glo”, Promega) was used to quantify enzyme activity. Using this kit, residual amounts of ATP are measured by a secondary enzymatic reaction, through which luciferase utilizes the remaining ATP to produce luminescence. Luminescent signal is directly proportional to ATP concentration and inversely proportional to Rhok2 activity.
This dose response assay was conducted in 1536 well plate format. Each concentration was tested nominally in triplicate. […] Plates were incubated for 10 minutes and luminescence was read on Perkin-Elmer Viewlux for 60 seconds. […] The percent inhibition for each well has been calculated as follows: % inhibition=(test compound−median_negative_control)/(median_positive_control−median_negative_control)*100 where the positive control is Y-27632 (13 micromolar) and negative control is DMSO only. […]

Sequence of Rhok2 (O75116 whole entry): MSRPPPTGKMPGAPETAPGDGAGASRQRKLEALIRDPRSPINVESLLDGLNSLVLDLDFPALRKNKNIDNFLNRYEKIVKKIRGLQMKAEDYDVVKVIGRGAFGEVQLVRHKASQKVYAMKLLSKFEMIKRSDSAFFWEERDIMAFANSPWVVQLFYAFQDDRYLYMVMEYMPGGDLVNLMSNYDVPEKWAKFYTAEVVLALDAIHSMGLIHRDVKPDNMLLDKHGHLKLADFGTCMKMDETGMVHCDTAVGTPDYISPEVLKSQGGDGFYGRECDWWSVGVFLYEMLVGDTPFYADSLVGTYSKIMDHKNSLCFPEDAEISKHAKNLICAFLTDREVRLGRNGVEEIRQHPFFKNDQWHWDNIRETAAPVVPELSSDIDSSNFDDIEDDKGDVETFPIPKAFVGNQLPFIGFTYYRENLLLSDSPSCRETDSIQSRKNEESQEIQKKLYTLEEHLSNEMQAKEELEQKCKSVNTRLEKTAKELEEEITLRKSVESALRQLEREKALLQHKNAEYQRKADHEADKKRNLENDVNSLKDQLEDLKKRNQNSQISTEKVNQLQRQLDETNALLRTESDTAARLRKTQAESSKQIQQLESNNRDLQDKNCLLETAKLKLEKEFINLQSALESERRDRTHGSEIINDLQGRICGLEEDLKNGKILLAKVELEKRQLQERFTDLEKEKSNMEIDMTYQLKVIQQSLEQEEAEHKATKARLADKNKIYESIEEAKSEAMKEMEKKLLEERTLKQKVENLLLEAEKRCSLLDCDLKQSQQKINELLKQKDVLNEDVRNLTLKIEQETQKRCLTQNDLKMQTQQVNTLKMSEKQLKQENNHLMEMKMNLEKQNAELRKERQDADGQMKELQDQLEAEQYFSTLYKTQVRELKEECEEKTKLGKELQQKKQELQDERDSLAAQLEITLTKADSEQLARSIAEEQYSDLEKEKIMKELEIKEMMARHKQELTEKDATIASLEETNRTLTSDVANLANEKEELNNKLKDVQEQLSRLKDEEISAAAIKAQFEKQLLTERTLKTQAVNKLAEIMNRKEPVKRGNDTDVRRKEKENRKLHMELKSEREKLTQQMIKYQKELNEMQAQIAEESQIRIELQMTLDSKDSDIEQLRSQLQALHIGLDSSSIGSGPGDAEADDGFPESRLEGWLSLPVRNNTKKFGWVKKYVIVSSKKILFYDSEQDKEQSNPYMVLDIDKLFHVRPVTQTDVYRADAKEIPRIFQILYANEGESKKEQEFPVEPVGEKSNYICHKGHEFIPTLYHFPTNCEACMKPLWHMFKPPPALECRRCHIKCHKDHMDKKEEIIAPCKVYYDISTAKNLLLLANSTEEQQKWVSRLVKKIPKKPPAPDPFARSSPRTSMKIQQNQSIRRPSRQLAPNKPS

IC50 (N2a cells): 4 nM
IC50 (smooth muscle cells): 6 nM
IC50 (Rhok2): 6 nM
Structure (SMILES): COc1ccc2c(c1)CC(c1nc3cc(-c4ccncc4)cc(F)c3[nH]1)CO2 (stereo not drawn) [Example 169, 7-fluoro-2-(6-methoxychroman-3-yl)-5-(pyridin-4-yl)-1H-benzo[d]imidazole]
